{"source": "patent US20100273750A1", "about": "“SEROTONIN RECEPTOR ANTAGONISTS FOR TREATING ARTHRITIS” (IMPERIAL INNOVATIONS LIMITED, priority 2007, published 2010)", "key": {"[1]": {"tested_on": "RA synovial membrane cultures", "assay": "Spontaneous cytokine release from RA synovial membrane cultures (ELISA)", "assay_type": "cell-based, human", "conditions": "24 hours"}, "[2]": {"tested_on": "TLR7/8 ligand R-848 induced TNF", "assay": "R-848 induced TNF production in primary human macrophages (ELISA)"}, "[3]": {"tested_on": "LPS induced NF-κB activation (TLR4)", "assay": "NF-κB luciferase reporter assay in synovial fibroblasts stimulated with LPS", "assay_type": "cell-based, human", "conditions": "30 μg/ml, 30 minutes preincubation, 10 ng/ml LPS for 6 h, n=3", "experimental": "(§1) Synovial fibroblasts were cultured in a 96-well plate, infected with recombinant adenovirus containing a NF-κB Luciferase reporter gene at a MOI of 200:1. The cells were allowed to rest for 24 h prior to stimulation. Cells were preincubated with 30 μg/ml mianserine hydrochloride for 30 minutes, then stimulated with 10 ng/ml LPS or 20 μg/ml Poly IC for 6 h. The cells were then washed once in PBS and lysed with 100 μl of CAT lysis buffer (0.65% (v/v) of Nonidet P-40, 10 mM Tris-HCl pH 8, 0.1 mM EDTA pH 8, 150 mM NaCl). 50 μl of cell lysate were mixed with 120 μl luciferase assay buffer (25 mM Tris-phosphate pH 7.8, 8 mM MgCl2, 1 mM EDTA, 1% (v/v) Triton X-100, 1% (v/v) glycerol, 1 mM DTT, 0.5 mM ATP) in the well of a luminometer cuvette strip. Luciferase activity was measured with a Luminometer (Thermo Labsystems, U.K.) by adding […] of luciferin (Bright-Glo luciferase assay system; Promega, Madison, Wis.) per assay point.\n(§2) RA synovial membrane cells were isolated from patients undergoing joint replacement surgery as previously described (Foxwell et al., Proc. Natl. Acad. Sci. USA 95, 8211-8215, 1998). All patients gave written informed consent and the study was approved by the local ethics committee. […]"}, "[4]": {"tested_on": "TLR9 ligand CpG induced TNF", "assay": "CpG induced TNF production in murine RAW 264.7 macrophages (ELISA)", "assay_type": "cell-based", "conditions": "30 μg/ml, 30 minutes preincubation, CpG for 6 hours, RAW 264.7, n=2", "experimental": "(§3) Macrophages or RA synovial membrane cell cultures were stimulated with 10 ng/ml chloroform-extracted LPS, 10 ng/ml Pam3, 10 ng/ml Flagellin, 10 ng/ml Malp-2, 20 μg/ml poly IC, 2 μM CpG (human/mouse) or 1 μg/ml R-848 in complete media for 6 h. Supernatants from RA cultures were harvested after 24 hours. All reagents other than LPS were free from LPS contamination as assessed using the limulus amebocyte lysate (LAL) assay from Cambrex (USA).\n(§4) Sandwich ELISAs were employed to measure TNF, (Pharmingen, UK). IP-10 (R&D, USA) and IL-1β (Bioscource. USA). Absorbance was read on a spectrophotometric ELISA plate reader (Labsystems Multiscan Biochromic) and analyzed using Ascent software V2.6 (Thermo Labsystems, Cambridge, United Kingdom). All results are expressed as the mean cytokine concentration±SD obtained from triplicate cultures per condition.\n(§5) RA synovial membrane cells were isolated from patients undergoing joint replacement surgery as previously described (Foxwell et al., Proc. Natl. Acad. Sci. USA 95, 8211-8215, 1998). All patients gave written informed consent and the study was approved by the local ethics committee. Immediately after isolation, cells were used for mRNA analysis, stained by FACS or cultured at 1×10^5 cells/well in 96-well tissue culture plates (Falcon, UK) in RPMI 1640 containing 10% (v/v) FBS and 100 U/ml penicillin/streptomycin. […]"}, "[5]": {"tested_on": "TLR3 induced NF-κB activation", "assay": "NF-κB luciferase reporter assay in synovial fibroblasts stimulated with poly IC", "assay_type": "cell-based, human", "conditions": "30 μg/ml, 30 minutes preincubation, 20 μg/ml Poly IC for 6 h, n=3", "experimental": "as §1, §2"}, "[6]": {"tested_on": "TLR4 ligand LPS induced TNF", "assay": "LPS induced TNF production in primary human macrophages (ELISA)", "assay_type": "cell-based", "conditions": "30 μg/ml, 30 minutes preincubation, 10 ng/ml LPS for 6 hours; hydrochloride", "experimental": "as §3, §4\n(§6) RA synovial membrane cells were isolated from patients undergoing joint replacement surgery as previously described (Foxwell et al., Proc. Natl. Acad. Sci. USA 95, 8211-8215, 1998). All patients gave written informed consent and the study was approved by the local ethics committee. Immediately after isolation, cells were used for mRNA analysis, stained by FACS or cultured at 1×10^5 cells/well in 96-well tissue culture plates (Falcon, UK) in RPMI 1640 containing 10% (v/v) FBS and 100 U/ml penicillin/streptomycin. Primary human synovial fibroblasts were cultured as described previously (Butler et al. Eur. Cytokine Netw. 5:441-8, 1994). Peripheral blood monocytes were isolated and cultured as previously described (Foxwell et al. Proc. Natl. Acad. Sci. USA 95, 8211-8215, 1998). Macrophages were derived from monocytes after differentiation for 4 days with 100 ng/ml M-CSF (PeproTech, UK). The mouse macrophage cell line RAW 264.7 was maintained in Dulbecco's modified Eagle's medium supplemented with 10% fetal bovine serum.\nPrimary human macrophages, murine RAW 264.7 cells and synovial fibroblasts were incubated with 30 μg/ml mianserine hydrochloride for 30 minutes and then stimulated for 6 hours with TLR ligands (R-848, Pam3, LPS, flagellin, malp-2, poly IC or CpG)."}, "[7]": {"tested_on": "TLR ligands Pam3, flagellin, Malp-2 induced TNF", "assay": "Pam3, flagellin or Malp-2 induced TNF production in primary human macrophages (ELISA)", "assay_type": "cell-based", "conditions": "30 μg/ml, 30 minutes preincubation", "experimental": "as §3, §4, §5"}, "[8]": {"tested_on": "CIA model of rheumatoid arthritis", "assay": "Murine CIA model of rheumatoid arthritis", "assay_type": "in vivo, Male DBA mice", "experimental": "Male DBA mice (8-10 weeks of age) were immunized at the base of the tail intradermally with 200 μg type II collagen emulsified in CFA (Difco Laboratories, West Molesey, U.K.). The onset of arthritis was considered to be the day that erythema and/or swelling were first observed, and arthritic mice were given a daily clinical score per limb from 0 to 3, with 0=normal, 1=slight erythema and swelling, 2=pronounced edematous swelling and 3=joint deformity with ankylosis, resulting in a maximum score of 12 per animal. Mianserine treatment started on the day of onset and was administered daily for 7 days. Paw swelling was assessed by measuring hind paw thickness using calipers.\nThe experiment was started at the onset of arthritis (day 1). Mice were given an interperitoneal injection of vehicle (PBS), 4 mg/kg or 10 mg/kg of mianserine hydrochloride once a day for 7 days. Mice were assessed for (FIG. 2A) clinical score and (FIG. 2B) paw swelling on a daily basis."}, "[9]": {"tested_on": "RA synovial membrane cultures", "assay": "Spontaneous cytokine release from RA synovial membrane cultures (ELISA)", "assay_type": "cell-based, human", "experimental": "Macrophages or RA synovial membrane cell cultures were stimulated with 10 ng/ml chloroform-extracted LPS, 10 ng/ml Pam3, 10 ng/ml Flagellin, 10 ng/ml Malp-2, 20 μg/ml poly IC, 2 μM CpG (human/mouse) or 1 μg/ml R-848 in complete media for 6 h. Supernatants from RA cultures were harvested after 24 hours.\nas §4, §6\nRheumatoid arthritis synovial membrane cells were cultured for 24 hours in the presence of media alone or media containing 30 μg/ml mianserine hydrochloride. Supernatants were harvested and levels of cytokines (A) TNF (n=16) were measured by ELISA. […] A students paired t-test was used to analyse the data."}, "[10]": {"tested_on": "TLR3 ligand poly IC induced IP-10", "assay": "Poly IC induced IP-10 production in human macrophages (ELISA)", "assay_type": "cell-based", "conditions": "30 μg/ml, 20 μg/ml poly IC for 6 hours; hydrochloride", "experimental": "as §3, §4, §6\nPrimary human macrophages were incubated with 5 μg/ml of GBR12909, 5 μg/ml of clotrimazole, 5 μg/ml of Propidium iodide (PI), 30 μg/ml mianserine hydrochloride and 30 μg/ml promazine hydrochloride for 30 minutes and then stimulated for 6 hours with the TLR4 ligand LPS (FIG. 7A), with R848 a TLR7/8 ligand (FIG. 7, Graph B), or with poly IC a TLR3 ligand (FIG. 7C). Supernatants were collected and measured for TNF or IP-10."}, "[11]": {"conditions": "4 mg/kg interperitoneal once a day for 7 days"}, "[12]": {"conditions": "10 mg/kg interperitoneal once a day for 7 days"}}, "note": "“Also recorded” adds a separate entry of the source. Where a name gives a salt, the structure may show the parent alone."}
{"smiles": "CN1CCN2c3ccccc3Cc3ccccc3C2C1", "note": "(stereo not shown) [mianserine hydrochloride]", "values": [{"measurement": "inhibition of spontaneous TNF production", "setting": "[1]; 20 μg/ml", "value": "able to inhibit"}, {"measurement": "decrease of TNF levels (positive control)", "setting": "[1]", "value": "able to decrease the TNF levels"}, {"measurement": "inhibitory effect on TNF production at rising R-848", "setting": "[2]; 5 μg/ml with 0.3, 1, 10 or 20 μg/ml R-848, 6 hours", "value": "diminished with increasing concentrations of R-848"}, {"measurement": "inhibition of R-848 induced TNF production", "setting": "[2]; 30 μg/ml, 30 minutes preincubation, 1 μg/ml R-848 for 6 hours, hydrochloride", "value": "decreased production of TNF; also recorded: able to suppress"}, {"measurement": "mode of inhibition of R-848 induced TNF production", "setting": "[2]; 2.5, 5 or 10 μg/ml with 0.3, 1, 10 or 20 μg/ml R-848, 6 hours, three donors", "value": "competitively inhibits"}, {"measurement": "effect on LPS induced NF-κB activation", "setting": "[3]", "value": "no effect"}, {"measurement": "inhibition of CpG induced TNF production", "setting": "[4]", "value": "able to inhibit TNF production"}, {"measurement": "inhibition of TLR3 induced NF-κB activation", "setting": "[5]", "value": "significantly inhibit"}, {"measurement": "inhibition of LPS induced TNF production", "setting": "[6]", "value": "not and None of the drugs tested were able to inhibit"}, {"measurement": "decreased production of TNF in response to Malp-2", "setting": "[7]; Malp-2 for 6 hours", "value": "not"}, {"measurement": "decreased production of TNF in response to flagellin", "setting": "[7]; flagellin for 6 hours", "value": "not"}, {"measurement": "clinical score", "setting": "[8]; [11]", "value": "did not produce as great an effect as the 10 mg/kg group"}, {"measurement": "hind paw swelling", "setting": "[8]; [11]", "value": "no significant improvement"}, {"measurement": "histology scoring", "setting": "[8]; [11]", "value": "an improvement in the score"}, {"measurement": "hind paw swelling", "setting": "[8]; [12]", "value": "significant improvement throughout the study"}, {"measurement": "histology scoring", "setting": "[8]; [12]", "value": "significant effect"}, {"measurement": "histology of hind paws: bone destruction and cell infiltration", "setting": "[8]; interperitoneal once a day for 7 days", "value": "clear reduction in both bone destruction and cell infiltration into the joint"}, {"measurement": "clinical score", "setting": "[8]; interperitoneal once a day for 7 days from onset, statistics for 10 mg/kg group versus vehicle, n=7", "value": "significant improvement to the control group from day 3 onwards"}, {"measurement": "inhibition of TNF, dose dependence", "setting": "[9]; 10 μg/ml, 20 μg/ml and 30 μg/ml", "value": "dose dependently inhibited"}, {"measurement": "inhibition of spontaneous TNF production", "setting": "[9]; 30 μg/ml, 24 hours", "value": "able to inhibit"}, {"measurement": "decrease in the levels of TNF", "setting": "[9]; 30 μg/ml, 24 hours, n=16, p=0.0007", "value": "59%±13"}, {"measurement": "inhibition of Poly IC induced IP-10 production", "setting": "[10]", "value": "inhibits TLR3 induced signalling; also recorded: able to inhibit"}]}
